Among the data in BindingDB's records for doi:10.1021/jm00371a008 (1984) are Ki values, retold here.

Structures are written as SMILES.

The target in the test is Folylpolyglutamate synthase (Mus musculus). Put plainly: Compound was evaluated for the binding affinity to mouse liver folyl polyglutamate synthetase.
On to `Nc1nc(N)c2nc(CNc3ccc(C(=O)NC(CS(=O)(=O)O)C(=O)O)cc3)cnc2n1` (centres undefined) [2-{4-[(2,4-Diamino-pteridin-6-ylmethyl)-amino]-benzoylamino}-3-sulfo-propionic acid], for which the affinity, expressed as Ki, was 43 µM.
The result for `Nc1nc(N)c2nc(CNc3ccc(C(=O)NC(CCS(=O)(=O)O)C(=O)O)cc3)cnc2n1` (centres undefined) [2-{4-[(2,4-Diamino-pteridin-6-ylmethyl)-amino]-benzoylamino}-4-sulfo-butyric acid] reads 59 µM; that for `CN(Cc1cnc2nc(N)nc(N)c2n1)c1ccc(C(=O)NC(CS(=O)(=O)O)C(=O)O)cc1` (centres undefined) [2-{4-[(2,4-Diamino-pteridin-6-ylmethyl)-methyl-amino]-benzoylamino}-3-sulfo-propionic acid], 136 µM.
The molecule `CN(Cc1cnc2nc(N)nc(N)c2n1)c1ccc(C(=O)NC(CCS(=O)(=O)O)C(=O)O)cc1` (centres undefined) [2-{4-[(2,4-Diamino-pteridin-6-ylmethyl)-methyl-amino]-benzoylamino}-4-sulfo-butyric acid] yielded a Ki of 198 µM.
